Laboratory results published in PMC6600542 (Molecules, 2019).

Key:
normal human plasma [1] = assay: APTT clotting assay, normal human plasma; format: biochemical
Procedure: (§1) For the PT assay, thromboplastin-D was reconstituted according to the manufacturer’s directions and warmed to 37 °C. […] After incubation for 4 min at 37 °C, clotting was initiated by adding 100 μL of prewarmed 25 mM CaCl2 and the time to clotting was noted. […] To determine the in vitro effect on the APTT of deficient human plasmas, the APTT assay was repeated, using human plasmas deficient of factor VII (FVII), factor IX (FIX), FXI, or factor XII (FXII). […] The positive control used in APTT and PT assays was rivaroxaban, a clinically used FXa inhibitor. Under the conditions reported, rivaroxaban doubled the APTT and PT at concentrations of 0.123 ± 0.003 µM and 0.193 ± 0.043 µM, respectively.

normal human plasma [2] = assay: PT clotting assay, normal human plasma; format: biochemical; conditions: normal human plasma (text)
Procedure: as §1

normal human plasma [3] = conditions: cited from earlier work

Structure (SMILES) | effect on the APTT (normal human plasma [1]; normal human plasma, highest concentration tested of 33.3 mM) | concentration to double the APTT (normal human plasma [1]; normal human plasma (text)) | concentration to double the PT (normal human plasma [2]) | effect on TT (normal human plasma [3])
O=S(=O)(O)CCO [isethionic acid] | did not affect the APTT | – | – | –
O=C(NC[C@H]1CN(c2ccc(N3CCOCC3=O)cc2)C(=O)O1)c1ccc(Cl)s1 [rivaroxaban] | – | 0.123 ± 0.003 µM | 0.193 ± 0.043 µM | no effect on TT
